Tested on: southern root-knot nematode (Meloidgyne incognita)
Experiment: Test on southern root-knot nematode (soil treatment, tomato seedling, root knot index)
Assay type: in vivo
Design: key: 0: No knot was formed; 1: Knots were formed to a slight degree; 2: Knots were formed to a moderate degree; 3: Knots were formed to a heavy degree; 4: Knots were formed to the heaviest degree
Conditions: 7 ml of 1600 ppm chemical solution mixed into 300 ml contaminated soil; tomato seedling in 2-leaf stage; three to four weeks after transplantation
Protocol: TEST EXAMPLE 1 Test on Southern Root-knot Nematode (Meloidgyne incognita) To 300 ml of the soil contaminated by southern root-knot nematode, 7 ml of a chemical solution having the concentration of the compound of the present invention adjusted to be 1600 ppm, was poured, followed by mixing so that the compound was uniformly dispersed. The treated soil was put into a pot (diameter: 9 cm, height: 8 cm), and then a tomato seedling in 2-leaf stage was transplanted and placed in a greenhouse. After three to four weeks from the transplantation of the tomato, the root knot index was determined based on the following standards. [table]

Row | Compound | root knot index
1 | CCC(C)(NC(=O)c1ccccc1F)C(=O)c1ccc(Cl)cc1 (racemic) [1-51] | 1
2 | CCC(C)(NC(=O)c1c(F)cccc1F)C(=O)c1ccc(Cl)cc1 (racemic) [1-151] | 1
3 | CC(C)(NC(=O)c1ccccc1F)C(=O)c1ccccc1 [1-1] | 1
4 | CC(C)(NC(=O)c1c(F)cccc1F)C(=O)c1ccccc1 [1-4] | 1
5 | CC(C)(NC(=O)c1ccccc1Br)C(=O)c1ccccc1 [1-17] | 1
6 | Cc1ccccc1C(=O)NC(C)(C)C(=O)c1ccccc1 [1-18] | 1
7 | Cc1ccc(C(=O)NC(C)(C)C(=O)c2ccccc2)cc1 [1-19] | 1
8 | CC(C)(NC(=O)c1ccccc1C(F)(F)F)C(=O)c1ccccc1 [1-24] | 1
9 | CC(C)(NC(=O)c1ccc(C(F)(F)F)cc1)C(=O)c1ccccc1 [1-28] | 1
10 | CSc1ccccc1C(=O)NC(C)(C)C(=O)c1ccccc1 [1-31] | 1
11 | CC(C)(NC(=O)c1ccccc1[N+](=O)[O-])C(=O)c1ccccc1 [1-38] | 1
12 | CC(C)(NC(=O)c1ccccc1)C(=O)c1ccc(Cl)cc1 [1-49] | 1
13 | CC(C)(NC(=O)c1ccccc1F)C(=O)c1ccc(Cl)cc1 [1-50] | 1
14 | CC(C)(NC(=O)c1ccccc1Br)C(=O)c1ccc(Cl)cc1 [1-64] | 1
15 | Cc1ccccc1C(=O)NC(C)(C)C(=O)c1ccc(Cl)cc1 [1-65] | 1
16 | CC(C)(NC(=O)c1ccccc1C(F)(F)F)C(=O)c1ccc(Cl)cc1 [1-70] | 1
17 | CC(C)(NC(=O)c1ccccc1F)C(=O)c1ccc(Cl)c(Cl)c1 [1-77] | 1
18 | CCc1ccc(C(=O)C(C)(C)NC(=O)c2ccccc2Cl)cc1 [1-83] | 1
19 | COc1ccc(C(=O)C(C)(C)NC(=O)c2ccccc2Cl)cc1 [1-93] | 1
20 | CC(C)(NC(=O)c1ccccc1Cl)C(=O)c1ccc(OC(F)F)cc1 [1-95] | 1
21 | CC(C)(NC(=O)c1ccc(F)cc1F)C(=O)c1ccccc1 [1-125] | 1
22 | CC(C)(NC(=O)c1c(F)cccc1F)C(=O)c1cccc(F)c1 [1-126] | 1
23 | CC(C)(NC(=O)c1cccc(F)c1F)C(=O)c1ccc(F)cc1 [1-127] | 1

Row | Compound | root knot index
24 | CC(C)(NC(=O)c1c(F)cccc1F)C(=O)c1ccc(F)cc1 [1-128] | 1
25 | CC(C)(NC(=O)c1ccccc1F)C(=O)c1ccc(F)c(F)c1 [1-130] | 1
26 | CC(C)(NC(=O)c1ccccc1Cl)C(=O)c1ccc(F)c(F)c1 [1-131] | 1
27 | CC(C)(NC(=O)c1ccccc1C(F)(F)F)C(=O)c1ccc(F)c(F)c1 [1-132] | 1
28 | CC(C)(NC(=O)c1c(F)cccc1F)C(=O)c1ccc(F)c(F)c1 [1-133] | 1
29 | CC(C)(NC(=O)c1c(F)cccc1F)C(=O)c1ccccc1Cl [1-134] | 1
30 | CC(C)(NC(=O)c1c(F)cccc1F)C(=O)c1cccc(Cl)c1 [1-135] | 1
31 | CC(C)(NC(=O)c1ccccc1[N+](=O)[O-])C(=O)c1ccc(Cl)cc1 [1-136] | 1
32 | CC(C)(NC(=O)c1ccc(F)cc1Cl)C(=O)c1ccc(Cl)cc1 [1-138] | 1
33 | CC(C)(NC(=O)c1cccc(F)c1F)C(=O)c1ccc(Cl)cc1 [1-139] | 1
34 | CC(C)(NC(=O)c1ccc(F)cc1F)C(=O)c1ccc(Cl)cc1 [1-140] | 1
35 | CC(C)(NC(=O)c1cc(F)ccc1F)C(=O)c1ccc(Cl)cc1 [1-141] | 1
36 | CC(C)(NC(=O)c1c(F)cccc1Cl)C(=O)c1ccc(Cl)cc1 [1-142] | 1
37 | CC(C)(NC(=O)c1c(F)cccc1F)C(=O)c1ccc(Cl)cc1Cl [1-143] | 1
38 | CC(C)(NC(=O)c1c(F)cccc1F)C(=O)c1ccc(Cl)c(Cl)c1 [1-147] | 1
39 | CC(C)(NC(=O)c1ccccc1Cl)C(=O)c1ccc(Br)cc1 [1-155] | 1
40 | CC(C)(NC(=O)c1c(F)cccc1F)C(=O)c1ccc(Br)cc1 [1-157] | 1
41 | CC(C)(NC(=O)c1ccccc1F)C(=O)c1ccc(Br)cc1 [1-158] | 1
42 | CC(C)(NC(=O)c1cccc(F)c1F)C(=O)c1ccc(Br)cc1 [1-159] | 1
43 | CC(C)(NC(=O)c1ccccc1F)C(=O)c1ccc(I)cc1 [1-160] | 1
44 | CC(C)(NC(=O)c1ccccc1C(F)(F)F)C(=O)c1ccc(I)cc1 [1-161] | 1
45 | CC(C)(NC(=O)c1c(F)cccc1F)C(=O)c1ccc(I)cc1 [1-162] | 1
46 | Cc1ccc(C(=O)C(C)(C)NC(=O)c2c(F)cccc2F)cc1 [1-163] | 1

Row | Compound | root knot index
47 | CCc1ccc(C(=O)C(C)(C)NC(=O)c2c(F)cccc2F)cc1 [1-164] | 1
48 | CC(C)(NC(=O)c1c(F)cccc1F)C(=O)c1ccc(C(F)(F)F)cc1 [1-166] | 1
49 | CC(C)(NC(=O)c1ccccc1F)C(=O)c1ccc(C(F)(F)F)cc1 [1-167] | 1
50 | COc1ccc(C(=O)C(C)(C)NC(=O)c2c(F)cccc2F)cc1 [1-168] | 1
51 | CCOc1ccc(C(=O)C(C)(C)NC(=O)c2c(F)cccc2F)cc1 [1-169] | 1
52 | CC(C)(NC(=O)c1ccccc1F)C(=O)c1ccc(OC(F)F)cc1 [1-171] | 1
53 | CC(C)(NC(=O)c1c(F)cccc1F)C(=O)c1ccc(OC(F)F)cc1 [1-172] | 1
54 | CC(C)(NC(=O)c1ccccc1F)C(=O)c1ccc(OCC(F)(F)F)cc1 [1-173] | 1
55 | CC(C)(NC(=O)c1c(F)cccc1F)C(=O)c1ccc(OCC(F)(F)F)cc1 [1-174] | 1
56 | CC(C)(NC(=O)c1ccccc1F)C(=O)c1ccc(OC(F)(F)C(F)F)cc1 [1-175] | 1
57 | CC(C)(NC(=O)c1ccccc1Cl)C(=O)c1ccc(OC(F)(F)C(F)F)cc1 [1-176] | 1
58 | CC(C)(NC(=O)c1c(F)cccc1F)C(=O)c1ccc(OC(F)(F)C(F)F)cc1 [1-177] | 1
59 | CC(C)(NC(=O)c1ccccc1C(F)(F)F)C(=O)c1ccc(OC(F)(F)C(F)F)cc1 [1-178] | 1
60 | CC(C)(NC(=O)c1ccccc1F)C(=O)c1ccc(OCC(F)(F)C(F)(F)F)cc1 [1-179] | 1
61 | CC(C)(NC(=O)c1c(F)cccc1F)C(=O)c1ccc(OCC(F)(F)C(F)(F)F)cc1 [1-180] | 1
62 | CC(C)(NC(=O)c1c(F)cccc1F)C(=O)c1ccc(Oc2ccc(C(F)(F)F)cn2)cc1 [1-211] | 1
63 | CSc1ccc(C(=O)C(C)(C)NC(=O)c2c(F)cccc2F)cc1 [1-212] | 1
64 | CC(C)(NC(=O)c1c(F)cccc1F)C(=O)c1ccc(S(C)(=O)=O)cc1 [1-213] | 1
65 | CC(C)(NC(=O)c1cccnc1Cl)C(=O)c1ccccc1 [2-2] | 1
66 | CC(C)(NC(=O)c1ccccc1Cl)C(=O)c1ccccc1 [Compound No. 1-5] | 1
67 | CN(C(=O)c1ccccc1C(F)(F)F)C(C)(C)C(=O)c1ccccc1 [Compound No. 1-27, N-methyl-N-[(1,1-dimethyl)phenacyl]-2-trifluoromethylbenzamide] | 1
68 | CC(C)(NC(=O)c1ccccc1Cl)C(=O)c1ccc(Cl)cc1 [Compound No. 1-54, 2-chloro-N-[(4′-chloro-1,1-dimethyl)phenacyl]benzamide] | 1
69 | CCc1ccc(C(=O)C(C)(C)NC(=O)c2cc(Cl)cc(Cl)c2)cc1 [Compound No. 1-84, 3,5-dichloro-N-[(4′-ethyl-1,1-dimethyl)phenacyl]benzamide] | 1
